The text below walks through data of US7658727B1, “Implantable medical device with enhanced biocompatibility and biostability” (Medtronic, Inc, priority 1998, dated 2010).

SMILES strings stand for the structures.

What all share (assay type): cell-based
The subject of experiment [1] is IL-8. Kind of experiment: In vitro expression of IL-8 in human primary monocytes. As to conditions: DEX 2.5, 0.25, 0.025 μg/ml; methotrexate 50, 5, 0.5 μg/ml.
Method: (§2) In order to assess the in vitro expression of IL-1α and IL-8, human primary monocytes were incubated with various concentrations of DEX (2.5, 0.25, and 0.025 μg/ml) and methotrexate (50, 5, and 0.5 μg/ml).
For experiment [2], the system named is IL-1α. Kind of experiment: In vitro expression of IL-1α in human primary monocytes. Particulars: DEX 2.5, 0.25, 0.025 μg/ml; methotrexate 50, 5, 0.5 μg/ml.
Method: as §2
Experiment [3] has as its system human monocyte-derived macrophage (Mo/MØs). The experiment can be described thus: Morphology of Mo/MØ monolayers on polyetherurethane (OM, SEM). Particulars: Mo/MØs cultured on PEU with DSP in culture media. As for the experimental part: Human and rabbit blood was used as sources of the cells in these experiments. Blood was anticoagulated with 2 units/ml sodium heparin (Upjohn Co., Kalamazoo, MI). Mononuclear cells (lymphocytes, monocytes) were isolated within 15 minutes by a one-step density gradient centrifugation procedure using Isopaque-1077 (a density gradient solution) according to a modified Boyum's method (Boyum et al., Blood Separation and Plasma Fractionation, 217-239, Wiley-Liss, Inc. (1991)). The mononuclear cells were harvested and washed twice with cold Hanks balanced salt solution (HBSS) without Ca^2+ and Mg^2+ to minimize cell aggregation. The cells were then resuspended in standard media (RPMI-1640, 10% Fetal bovine serum, […], 10 Ul/ml Penicillin-G, and 0.1 mg/ml Streptomycin). The cell suspension was seeded into several plastic tissue culture flasks and incubated in the presence of 5% CO2 at 37° C. for 1 hour (Ackerman et al., J. Immunol., 20, 1372-1374 (1978)). After this incubation, adherent (monocytes) were gently scrapped from the surface and resuspended in standard media. […]
(§1) The polymer films (0.12 mm thick) were sufficiently thin and transparent to enable visualization of cells on their surfaces during cell culturing using optical microscopy (OM) with an Olympus BX40 light microscope. […] The polymer surfaces were also evaluated using SEM following the 10-day treatment with FeCl2. […]

Experiment [4] concerns human Mo/MØs. The experiment can be described thus: Surface analysis (OM/SEM) for environmental stress cracking after macrophage/FeCl2 treatment. Particulars: AS PEU exposed to Mo/MØs plus DSP followed by FeCl2. As for the experimental part: Macrophage Treatment. The PEU film specimens (AS and non-AS) in the microwell plates were covered with either freshly isolated human or rabbit monocyte-derived macrophage (Mo/MØs), or human lymphocytes (3×10^5 cells per well) and cultured in a standard media (RPMI-1640, 10% Fetal bovine serum, […], 10 Ul/ml Penicillin-G and 0.1 mg/ml Streptomycin). A 49-day macrophage treatment was conducted under standard conditions (i.e., presence of 5% CO2, and 95% humidity at 37° C.). […] Two blank conditions were also studied. In one, culture media only was placed into the microwells. The other was prepared with no culture media and stored in the dark. All polymer specimens were incubated for the time of the first treatment. Samples in triplicate were removed after various time periods for hydroperoxide determination. After a 49-day incubation, specimens were prepared in triplicate for the second step of the sample treatment protocol.
FeCl2 treatment. […]
as §1

On to `CN(Cc1cnc2nc(N)nc(N)c2n1)c1ccc(C(=O)N[C@@H](CCC(=O)O)C(=O)O)cc1` [methotrexate], for which the IL-8 inhibition entry in experiment [1] is “higher rate of IL-1 and IL-8 inhibition”. Also, the IL-1 inhibition entry in experiment [2] is “higher rate of IL-1 and IL-8 inhibition”.
As to `C[C@@H]1C[C@H]2[C@@H]3CCC4=CC(=O)C=C[C@]4(C)[C@@]3(F)[C@@H](O)C[C@]2(C)[C@@]1(O)C(=O)COP(=O)(O)O` [DSP, dexamethasone sodium phosphate], in experiment [3], the “cell size of Mo/MØ monolayers (OM)” value is “no increase in cell size”. In experiment [4], the “surface damage (SEM) after FeCl2” value is reported as “only very occasional pits”.
